Test results as given in PubChem BioAssay (NCI).
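GI50 is the concentration that inhibits growth by half. The concentration for full growth arrest is given as TGI.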

Assays:
Test in all cases: growth of human tumour cells (NCI), 384-well format
MOLT-4 leukemia = test system: MOLT-4 leukemia
HCC-2998 colon = test system: HCC-2998 colon
BT-549 breast = test system: BT-549 breast
NCI-H226 lung = test system: NCI-H226 lung
T-47D breast = test system: T-47D breast
RPMI-8226 leukemia = test system: RPMI-8226 leukemia
NCI-H23 lung = test system: NCI-H23 lung
HCT-15 colon = test system: HCT-15 colon
NCI-H460 NSCLC = test system: NCI-H460 NSCLC
HOP-62 NSCLC = test system: HOP-62 NSCLC
OVCAR-3 ovarian = test system: OVCAR-3 ovarian
MDA-MB-468 breast = test system: MDA-MB-468 breast
OVCAR-4 ovarian = test system: OVCAR-4 ovarian
SK-OV-3 ovarian = test system: SK-OV-3 ovarian
CAKI-1 renal = test system: CAKI-1 renal
SNB-19 CNS = test system: SNB-19 CNS
SK-MEL-28 melanoma = test system: SK-MEL-28 melanoma
MALME-3M melanoma = test system: MALME-3M melanoma
TK-10 renal = test system: TK-10 renal
OVCAR-5 ovarian = test system: OVCAR-5 ovarian
SK-MEL-5 melanoma = test system: SK-MEL-5 melanoma
M14 melanoma = test system: M14 melanoma
MCF7 breast = test system: MCF7 breast
HS 578T breast = test system: HS 578T breast
NCI/ADR-RES ovarian = test system: NCI/ADR-RES ovarian
CCRF-CEM leukemia = test system: CCRF-CEM leukemia
786-0 renal = test system: 786-0 renal
NCI-H522 lung = test system: NCI-H522 lung
SF-268 CNS = test system: SF-268 CNS
DU-145 prostate = test system: DU-145 prostate
HT29 colon = test system: HT29 colon
SN12C renal = test system: SN12C renal
ACHN renal = test system: ACHN renal
EKVX NSCLC = test system: EKVX NSCLC
OVCAR-8 ovarian = test system: OVCAR-8 ovarian
U251 glioblastoma = test system: U251 glioblastoma
UACC-257 melanoma = test system: UACC-257 melanoma
HOP-92 NSCLC = test system: HOP-92 NSCLC
NCI-H322M lung = test system: NCI-H322M lung
SNB-75 CNS = test system: SNB-75 CNS
A498 renal = test system: A498 renal
A549 NSCLC = test system: A549 NSCLC
SF-539 CNS = test system: SF-539 CNS
SW-620 colon = test system: SW-620 colon
PC-3 prostate = test system: PC-3 prostate
RXF 393 renal = test system: RXF 393 renal
COLO 205 colon = test system: COLO 205 colon
KM12 colon = test system: KM12 colon
SR leukemia = test system: SR leukemia
IGROV1 ovarian = test system: IGROV1 ovarian
MDA-MB-231 breast = test system: MDA-MB-231 breast
MDA-MB-435 melanoma = test system: MDA-MB-435 melanoma
UACC-62 melanoma = test system: UACC-62 melanoma
HL-60(TB) leukemia = test system: HL-60(TB) leukemia
SF-295 CNS = test system: SF-295 CNS
SK-MEL-2 melanoma = test system: SK-MEL-2 melanoma

Nc1n[n+](=O)c2ccccc2n1O
GI50 (MOLT-4 leukemia): 12.3 µM | TGI (MOLT-4 leukemia): 24.8 µM | GI50 (HCC-2998 colon): 35.8 µM | TGI (HCC-2998 colon): > 100 µM | GI50 (BT-549 breast): 24.1 µM | TGI (BT-549 breast): 65.1 µM | GI50 (NCI-H226 lung): 39.4 µM | TGI (NCI-H226 lung): > 100 µM | GI50 (T-47D breast): 24.1 µM | TGI (T-47D breast): > 100 µM | GI50 (RPMI-8226 leukemia): 13.3 µM | TGI (RPMI-8226 leukemia): 31.4 µM | GI50 (NCI-H23 lung): 18 µM | TGI (NCI-H23 lung): 46.5 µM | GI50 (HCT-15 colon): 32 µM | TGI (HCT-15 colon): > 100 µM | GI50 (NCI-H460 NSCLC): 18.8 µM | TGI (NCI-H460 NSCLC): 61.6 µM | GI50 (HOP-62 NSCLC): 22.5 µM | TGI (HOP-62 NSCLC): 66.6 µM | GI50 (OVCAR-3 ovarian): 35.1 µM | TGI (OVCAR-3 ovarian): > 100 µM | GI50 (MDA-MB-468 breast): 6.96 µM | TGI (MDA-MB-468 breast): 23.1 µM | GI50 (OVCAR-4 ovarian): 24.5 µM | TGI (OVCAR-4 ovarian): 73 µM | GI50 (SK-OV-3 ovarian): 17.7 µM | TGI (SK-OV-3 ovarian): 70.5 µM | GI50 (CAKI-1 renal): 36.2 µM | TGI (CAKI-1 renal): > 100 µM | GI50 (SNB-19 CNS): 48.2 µM | TGI (SNB-19 CNS): > 100 µM | GI50 (SK-MEL-28 melanoma): > 100 µM | TGI (SK-MEL-28 melanoma): > 100 µM | GI50 (MALME-3M melanoma): 27.8 µM | TGI (MALME-3M melanoma): 81.4 µM | GI50 (TK-10 renal): 69.8 µM | TGI (TK-10 renal): > 100 µM | GI50 (OVCAR-5 ovarian): > 100 µM | TGI (OVCAR-5 ovarian): > 100 µM | GI50 (SK-MEL-5 melanoma): 14.7 µM | TGI (SK-MEL-5 melanoma): 34.3 µM | GI50 (M14 melanoma): 24.5 µM | TGI (M14 melanoma): 65.6 µM | GI50 (MCF7 breast): 57.6 µM | TGI (MCF7 breast): > 100 µM | GI50 (HS 578T breast): 20 µM | TGI (HS 578T breast): > 100 µM | GI50 (NCI/ADR-RES ovarian): 51.4 µM | TGI (NCI/ADR-RES ovarian): > 100 µM | GI50 (CCRF-CEM leukemia): 20.5 µM | TGI (CCRF-CEM leukemia): 47.5 µM | GI50 (786-0 renal): 59.8 µM | TGI (786-0 renal): > 100 µM | GI50 (NCI-H522 lung): 11.9 µM | TGI (NCI-H522 lung): 44.1 µM | GI50 (SF-268 CNS): 24.3 µM | TGI (SF-268 CNS): 73.5 µM | GI50 (DU-145 prostate): 43.5 µM | TGI (DU-145 prostate): > 100 µM | GI50 (HT29 colon): 69.7 µM | TGI (HT29 colon): > 100 µM | GI50 (SN12C renal): 22.3 µM | TGI (SN12C renal): > 100 µM | GI50 (ACHN renal): 27.2 µM | TGI (ACHN renal): 69.8 µM | GI50 (EKVX NSCLC): 33.1 µM | TGI (EKVX NSCLC): > 100 µM | GI50 (OVCAR-8 ovarian): 37.7 µM | TGI (OVCAR-8 ovarian): > 100 µM | GI50 (U251 glioblastoma): 46.7 µM | TGI (U251 glioblastoma): > 100 µM | GI50 (UACC-257 melanoma): 68.2 µM | TGI (UACC-257 melanoma): > 100 µM | GI50 (HOP-92 NSCLC): 20.3 µM | TGI (HOP-92 NSCLC): 65.5 µM | GI50 (NCI-H322M lung): > 100 µM | TGI (NCI-H322M lung): > 100 µM | GI50 (SNB-75 CNS): 20 µM | TGI (SNB-75 CNS): 60.3 µM | GI50 (A498 renal): 38.7 µM | TGI (A498 renal): > 100 µM | GI50 (A549 NSCLC): 47 µM | TGI (A549 NSCLC): > 100 µM | GI50 (SF-539 CNS): 58.3 µM | TGI (SF-539 CNS): > 100 µM | GI50 (SW-620 colon): 72.5 µM | TGI (SW-620 colon): > 100 µM | GI50 (PC-3 prostate): 46.4 µM | TGI (PC-3 prostate): > 100 µM | GI50 (RXF 393 renal): 36.8 µM | TGI (RXF 393 renal): > 100 µM | GI50 (COLO 205 colon): 35.8 µM | TGI (COLO 205 colon): > 100 µM | GI50 (KM12 colon): 41.7 µM | TGI (KM12 colon): > 100 µM | GI50 (SR leukemia): 4.04 µM | TGI (SR leukemia): 13.5 µM | GI50 (IGROV1 ovarian): 36.7 µM | TGI (IGROV1 ovarian): > 100 µM | GI50 (MDA-MB-231 breast): 70 µM | TGI (MDA-MB-231 breast): > 100 µM | GI50 (MDA-MB-435 melanoma): > 100 µM | TGI (MDA-MB-435 melanoma): > 100 µM | GI50 (UACC-62 melanoma): 20.6 µM | TGI (UACC-62 melanoma): 59.9 µM | GI50 (HL-60(TB) leukemia): 20.2 µM | TGI (HL-60(TB) leukemia): 40.5 µM | GI50 (SF-295 CNS): 26.1 µM | TGI (SF-295 CNS): > 100 µM | GI50 (SK-MEL-2 melanoma): 42.2 µM | TGI (SK-MEL-2 melanoma): 90.5 µM
